Experimental data reported in patent US8076094B2, “Phosphorylation of histone H3 at threonine 11—a novel epigenetic mark for transcriptional regulation” (Universitaetsklinixum Freiburg, priority 2007, dated 2011).
“Also recorded” adds a separate entry of the source.

What was measured:
[1] = tested on: endogenous PRK1 and AR in LNCaP cells; test: Western blot analysis of knockdown in LNCaP cells; format: cell-based
Text: (§1) To initiate our study, we analysed the effect of PRK1 knockdown on the expression of endogenous AR target genes.
To determine whether PRK1 controls phosphorylation of H3T11 at promoters of AR-regulated genes in vivo, LNCaP cells were first transfected with either an unrelated control siRNA or a siRNA directed against PRK1, in the presence or absence of R1881, and then subjected to ChIP. Addition of ligand results in phosphorylation of H3T11 at the AREs of the PSA and KLK2 promoters (FIG. 2d, left panel). Androgen-induced phosphorylation at H3T11 is PRK1-dependent since it is blocked by knockdown of PRK1. […] To corroborate that androgen-induced phosphorylation of H3T11 is executed by PRK1, LNCaP cells were cultivated in the presence or absence of Ro318220 and subjected to ChIP.
Experiments were performed as described^2. Western blots were decorated as indicated.

[2] = tested on: PSA and KLK2 promoters in LNCaP cells; test: Chromatin immunoprecipitation (ChIP) at AREs of PSA and KLK2 promoters in LNCaP cells; format: cell-based; conditions: for ligand-induced phosphorylation of H3T11 at AREs of PSA and KLK2 promoters: 1×10^−8 M R1881 45 min, FIG. 2d, e; for S5-P CTD pol II at the promoters of PSA and KLK2 / recruitment of RNA polymerase II (α-NTD pol II): Ro318220 1×10^−5 M, FIG. 3f, g
Protocol: Chromatin Immunoprecipitation ChIP and Re-ChIP experiments were performed as described^5,9. LNCaP cells were cultured for 45 min (FIGS. 1c, 2d, 2e) or 210 min (FIG. 3a, b, f, g) in the presence or absence of 1×10^−8 M R1881 as indicated. Ro318220 (1×10^−5 M) was added to the LNCaP cells (FIG. 3b, g) 60 min before addition of R1881. Three days before harvesting, LNCaP cells were transfected with stealth RNAi (ctr: 5′-[…]-3′ (Sequence Protocol: 5) (SEQ ID NO: 5); PRK1: 5′-[…]-3′ (Sequence Protocol: 6) (SEQ ID NO: 6); Invitrogen) following the manufacturer's instructions. Immunoprecipitation was performed with specific antibodies (α-monoMeH3K9, α-diMeH3K9, α-triMeH3K9, α-acetyl-H3K9/K14, α-H3, α-AR (Upstate Biotechnology), α-S5-P CTD pol II, α-phosphoH3T11 (Abcam), α-NTD pol II (N-20, Santa Cruz), α-LSD1^5, α-JMJD2C^4, and α-PRK1) on protein A-Sepharose 4B (GE-Healthcare). For PCR, 1-5 μl out of 50 μl DNA extract was used. PCR primers for ARE I+II (PSA-459/-121), ARE III (PSA-4288/-3922), KLK2 (−343/-90), GAPDH, and U6 were described previously^5. Western Blot Analysis

[3] = tested on: AR-dependent reporters in LNCaP cells; test: AR-dependent reporter (luciferase) assay in LNCaP cells; format: cell-based; conditions: R1881, FIG. 5a, b
Protocol: CV1 and LNCaP cells were cultured and transfected as described^2. The following amounts were transfected per well: 500 ng of MMTV-LUC, Probasin-LUC, or PSA-LUC; 25 ng of AR expression plasmid; 200 ng (FIG. 3e) or 400 ng (FIG. 3c, d) expression plasmids of LSD1 or JMJD2C, 150 ng PRK1 K644E, 1000 ng expression plasmid of miRNA-control, miRNA1-PRK1, or miRNA2-PRK1 (FIG. 5a). Cells were cultivated for 18 hours in the presence or absence of 1×10^−10 M R1881 (Sigma), 2.5×10^−6 M (FIG. 3d) or 4.5×10^−6 M (FIG. 3c) Ro318220 (Roche) as indicated. Luciferase activity was assayed as described^2. All experiments were repeated at least four times in duplicate.

[4] = tested on: PRK1; test: In vitro kinase assay; format: biochemical
Protocol: To understand how association of PRK1 and AR with chromatin results in increased gene expression, we tested whether PRK1 directly phosphorylates the N-terminal tail of histone H3. Myc-PRK1 and the flag-tagged kinase dead mutant PRK1 K644E^2 were immunoprecipitated from 293 cell lysates with an α-myc or an α-flag antibody, respectively (FIG. 6a, b), and incubated with bacterially expressed and purified GST-H3 1-44 or GST control protein. GST-H3 1-44 is phosphorylated by PRK1, but not by PRK1 K644E (FIG. 2a).
In addition, we incubated nucleosomes purified from HeLa cells with recombinant PRK1 in the presence or absence of Ro318220. […] This phosphorylation is blocked by Ro318220 (FIG. 2c).
The kinase assays were performed as described^11. 10 μg GST-tagged H3 proteins or 1 μg of nucleosomes purified from HeLa cells^12 were incubated with immunoprecipitated PRK1 proteins (FIG. 2a) or 1 μg purified recombinant PRK1 (FIG. 2b, c; ProQinase GmbH) for 0 to 10 min (FIG. 2c) or 20 min (FIG. 2a, b) at 30° C. in kinase buffer containing 20 mM Tris-HCl pH 7.5, 20 μM ATP, 8 mM MgCl2, and 5 μCi (γ-^32P) ATP. The reaction mixture was analysed by SDS-PAGE followed by autoradiography or Western blotting using antibodies as indicated.

[5] = tested on: androgen-induced expression of endogenous AR target genes PSA and KLK2 in LNCaP cells; test: Quantitative RT-PCR of endogenous AR target genes in LNCaP cells; format: cell-based; conditions: presence or absence of R1881, FIG. 1a, b
Protocol: as §1
Quantitative RT-PCR and statistical analysis were performed as described^5. The primers for GAPDH, PSA, and KLK2 were described previously^5.

[6] = R1881 210 min, Ro318220 1×10^−5 M 60 min before R1881, stealth RNAi three days before harvesting, FIG. 3a, b

For “5′-GAAAGUCCUAGAUCCACACGCAAAU-3′ (siRNA; Stealth RNAi from Invitrogen, chemistry not given here) [siRNA directed against PRK1]”, the “down-regulation of endogenous PRK1” value ([1]; FIG. 1a, 2d right panels) was “depletion is specific”, the “levels of endogenous AR” value ([1]; FIG. 2d right panel) was “does not affect” and the “ligand-induced phosphorylation of H3T11 at AREs of PSA and KLK2 promoters” value [2] was “blocked”. The “ligand-induced acetylation of H3K9/K14” value [2, 6] was “blocked”, the “ligand-induced demethylation of tri-, di-, and monomethyl H3K9” value [2, 6] was “severely impaired” and the “S5-P CTD pol II at the promoters of PSA and KLK2” value ([2]; R1881 210 min) was “loss”. For the same compound, the “recruitment of RNA polymerase II (α-NTD pol II)” value ([2]; R1881 210 min) was “not affected”.
In the case of Cn1cc(C2=C(c3cn(CCCSC(=N)N)c4ccccc34)C(=O)NC2=O)c2ccccc21 [Ro318220], the “ligand-induced expression of AR-dependent reporters” value [3] was “severely reduce; also recorded: strong decrease”, the “phosphorylation of GST-H3 1-44 by PRK1” value ([4]; immunoprecipitated Myc-PRK1, 20 min at 30° C., FIG. 2a) was “completely blocks” and the “phosphorylation of nucleosomes at H3T11 by PRK1” value ([4]; nucleosomes from HeLa cells, recombinant PRK1, 0 to 10 min, Western blot α-phosphoH3T11, FIG. 2c) was “blocked”. The “ligand-induced phosphorylation of H3T11 at AREs of PSA and KLK2 promoters” value [2] was “efficiently blocks”, the “ligand-induced demethylation of tri-, di-, and monomethyl H3K9” value [2, 6] was “loss” and the “S5-P CTD pol II at the promoters of PSA and KLK2” value ([2]; R1881 210 min) was “loss”. The “recruitment of RNA polymerase II (α-NTD pol II)” value ([2]; R1881 210 min) was “not affected” and the “androgen-induced expression of endogenous AR target genes (PSA, KLK2)” value [5] was “reduce expression; also recorded: severely impedes”.
